Source: patent publication US8729047B2, “Compositions for inhibiting redox-sensitive GTPases” (Board of Regents, The University of Texas System, priority 2010, dated 2014)

What was measured:
[1] = system: HME-RhoC cells; assay: Apoptosis / cell population of cells treated with thiopurines; assay type: cell-based, human; settings: not shown
[2] = biological target: T1, RhoC (Homo sapiens, UniProt P08134); assay: Redox agent-mediated GDP dissociation (FIG. 16B); assay type: biochemical; parameters: made in house; host or cells: E. coli; settings: [3H]GDP-loaded RhoC 1 μM, redox agent ~3 μM, free GDP 10 μM, anaerobic
T1 sequence (P08134 whole entry): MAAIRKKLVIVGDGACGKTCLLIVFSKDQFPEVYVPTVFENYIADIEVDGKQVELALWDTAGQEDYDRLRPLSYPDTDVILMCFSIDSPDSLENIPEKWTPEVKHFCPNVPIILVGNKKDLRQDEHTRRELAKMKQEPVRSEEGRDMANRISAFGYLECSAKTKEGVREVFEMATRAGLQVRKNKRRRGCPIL
Method: (§1) FIG. 16. Kinetic properties of RhoC with 6-TGDP in the presence or absence of a redox agent. All kinetic analyses are described elsewhere herein. (A) ^appKD values of Rac1, RhoA, RhoC, and RhoC C20S for 6-TGDP were estimated to be 7.9, 11.6, 11.8, and 11.2 μM, respectively. ^trueKD values of Rac1, RhoA, […] for 6-TGDP were then calculated to be 5.1, 10.8, 11.1, and 10.5 μM, respectively, by using a compensation equation, ^trueKD for 6-TGDP=^appKD for 6-TGDP/(1+[[^3H]GDP]/^trueKD for GDP) (Heo, J., and Hong, I. (2010) Biochemistry 49, 3965-3976), in conjunction with the values given. […] The GDP dissociation rates from RhoC C20S by NO, .NO2, and N2O3 were estimated to be 0.02×10^−3, 0.05×10^−3, and 0.04×10^−3 s^−1, respectively. […] (D) ^appKD values of RhoC for [^3H]GDP in the presence or absence of DTT were estimated to be 22.4 μM and […], respectively. ^appKD values of C20S RhoC for [^3H]GDP in the presence or absence of DTT were determined to be 24.8 μM and 25.2 μM, respectively. The regression values associated with these fits were >0.8595. All data points associated with vertical standard error bars shown in this figure are the mean values of triplicate measurements.
(§2) Transition metal-free assay buffer and vials as described in a previous study (Heo et al. Biochemistry 49, 3965-3976 (2010)) were used for all kinetic assays. The kinetic assay buffer contains the highest grade of 50 mM NaCl, 10 mM MgCl2, 1 mM EDTA, and 0.1 mM DTPA in 50 mM TrisHCl (pH 7.4). Before performance of any of the assays, all protein samples also were dialyzed with a metal-free buffer under anaerobic conditions. As with RhoA and Rac1 (Heo et al. J. Biol. Chem. 280, 31003-31010 (2005)), C20S RhoC were expressed in E. coli and purified using anionic and size exclusion columns.
(§3) (b) The effect of redox agents such as NO, .NO2, and N2O3 on the binding interaction between RhoC proteins and GDP or 6-TGDP was examined under N2-filled serum-stoppered anaerobic experimental conditions (O2<3 ppm). These anaerobic experimental conditions were necessary to block the reaction of NO or .NO2 with O2 to produce higher oxides. The contents of NO and .NO2, respectively, in the sealed assay vials were determined by using a hemoglobin assay and NO2^−/NO3^− Assay Kit-C II (Dojindo) under anaerobic conditions (Heo et al. J. Biol. Chem. 280, 31003-31010 (2005); Heo et al. Biochemistry 43, 2314-2322 (2004)). N2O3 was generated by mixing NO and .NO2 1:1 stoichiometrically. […] The fraction of the redox agent-mediated release of the bound [^3H]GDP per Rho protein over time was determined as noted above, and the result was plotted against time. The rates of RhoC GDP dissociation in the presence of redox agents were determined by using Prism software to fit the result to a one-phase exponential decay.

[3] = biological target: T2, RhoC C20S (Homo sapiens, UniProt P08134, C20S); assay: Redox agent-mediated GDP dissociation (FIG. 16B); assay type: biochemical; parameters: made in house; host or cells: E. coli; settings: [3H]GDP-loaded protein 1 μM, redox agent ~3 μM, free GDP 10 μM, anaerobic
T2 sequence (P08134 whole entry C20S): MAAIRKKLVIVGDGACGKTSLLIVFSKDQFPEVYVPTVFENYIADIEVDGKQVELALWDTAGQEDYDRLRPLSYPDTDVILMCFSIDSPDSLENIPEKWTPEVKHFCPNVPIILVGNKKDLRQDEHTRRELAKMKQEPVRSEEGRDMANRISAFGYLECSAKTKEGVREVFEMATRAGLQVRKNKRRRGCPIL
Method: as §1, §2, §3

[4] = biological target: T1, RhoC; assay: Redox agent-mediated 6-TGDP dissociation (FIG. 16C); assay type: biochemical; parameters: made in house; host or cells: E. coli; settings: 6-TGDP-loaded RhoC treated with redox agent, free [3H]GDP 10 μM
Method: as §1, §2
(§4) (c) To test the Rho 6-TGDP-binding interaction in the presence of redox agents, the 6-TGDP-loaded RhoC protein was treated with redox agents in the presence of free […] (10 μM). An association of RhoC protein with [^3H]GDP to produce a RhoC-[^3H]GDP complex will occur proportionally after RhoC releases 6-TGDP through the action of redox agents. Therefore, the fraction of the redox agent-mediated release of the bound 6-TGDP per Rho protein over time can be deduced by determination of the RhoC-bound [^3H]GDP, where the quantity of RhoC-bound 6-TGDP equals 1 minus the determined fraction of the RhoC-bound [^3H]GDP as described in Section (b). The estimated data associated with the quantity of RhoC-bound 6-TGDP then was fitted to a one-phase exponential decay; Prism software was used to derive the rate of 6-TGDP dissociation from RhoC.

[5] = biological target: T2, RhoC C20S; assay: as above; assay type: biochemical; parameters: made in house; host or cells: E. coli; settings: 6-TGDP-loaded RhoC C20S treated with redox agent, free [3H]GDP 10 μM
Method: as §1, §2, §4

[6] = system: HME-RhoC cells; assay: Matrigel invasion (cell motility) assay; assay type: cell-based, human; settings: NO donor alone 10 μM, three days continuous; FIG. 14A
Method: FIG. 5. Determination of cell invasiveness in the presence and absence of 6-thiopurine and/or a redox agent. The top chamber of a Transwell filter (6.5 mm with 8 μm pores, Costar; Corning, N.Y.) was coated with a 10 μL aliquot of 10 mg/mL Matrigel (BD Biosciences, Bedford Mass.), and the lower chamber of the Transwell was filled with either serum-free or serum-containing media. Sample cells (e.g., 6-TG-resistant HME-RhoC cells) were prepared to resuspend cells in a serum-free medium with 0.1% BSA at a concentration of 4×10^5 cells/mL. At this point, neither 6-thiopurine nor GSNO were added to the cells. The sample cells (0.5 mL) were added to the top chamber of a Transwell filter and were incubated for 24 h at 37° C. in a 10% CO2 incubator. The Transwell filters were fixed with methanol, stained with H&E, and cells in the serum-containing samples were counted. The number of cells that had invaded the serum-free medium-containing lower chambers was used as a control background. Results are given as percent invasion over that seen in HME-RhoC cells (100%) and represent mean and standard error values from triplicate measurements.
FIG. 11. Determination of cell invasiveness in the presence and absence of […] and/or a redox agent. […] The number of cells that had invaded the serum-free medium-containing lower chambers was used as a control background. Results are given as percent invasion over that seen in HME-RhoC cells (100%) and represent mean and standard error values from triplicate measurements.
(§5) FIG. 14. Determination of cell invasiveness in the presence and absence of thiopurines and/or redox agents. […] Western blot analysis representing the total expression of RhoC in these cells also is shown. (B) Experimental procedures for the determination of the time-dependent motility of cells using the QCM Cell Invasion Assay kit in the presence and absence of 6-TG and DETA/NO are described elsewhere herein.
(§6) The top chamber of a Transwell filter (6.5 mm with 8 μm pores, Costar; Corning, N.Y.) was coated with a 10 μL aliquot of 10 mg/mL Matrigel, and the lower chamber of the Transwell was filled with either serum-free or serum-containing media. Sample cells were prepared to resuspend cells in a serum-free medium with 0.1% BSA at a concentration of 4×10^5 cells/mL. […] The Transwell filters were fixed with methanol, stained with haematoxylin and eosin, and cells in the serum-containing samples were counted. The number of cells that had invaded the serum-free, medium-containing lower chambers was used as a control background.

[7] = system: HME-C20S RhoC cells; assay: Matrigel invasion (cell motility) assay; assay type: cell-based, human; settings: NO donor alone 10 μM, three days continuous; FIG. 14A
Description: as §5, §6

[8] = system: SUM149 cells; assay: Matrigel invasion (cell motility) assay; assay type: cell-based, human; settings: NO donor alone 10 μM, three days continuous; FIG. 14A
Description: as §5, §6

[9] = biological target: T2, RhoC C20S; assay: RhoC expression (Western) and RhoC activity assay in cells; assay type: cell-based; parameters: expressed in transfected cells; host or cells: human mammary epithelial (HME) cells; settings: HME-C20S RhoC cells, NO donor alone, three days
Method: as §5
(§7) Cells were lysed in an extraction buffer containing 50 mM NaCl, 5 mM MgCl2, 1 mM ethylenediaminetetraacetic acid (EDTA), 0.1 mM diethylenetriaminepentaacetic acid (DTPA), and 0.1% NP40 in 150 mM TrisHCl (pH 8.0). The content of […] RhoC in cells then was determined by using Western analysis that relies on a monoclonal anti-RhoC antibody (Biocompare, South San Francisco, Calif.). To determine RhoC activity, the colorimetric RhoA activation assay Biochem Kit (Cytoskeleton, Denver, Colo.) was used essentially as described in the previous study (Hall et al. Neoplasia 10, 797-803 (2008)) except that the RhoC specific antibody (vide supra), instead of the RhoA antibody included in the assay kit, was used for this analysis.

[10] = biological target: T1, RhoC; assay: as above; assay type: cell-based; parameters: endogenous in cells; host or cells: SUM149, SUM102, SW480, HCCLM3 (endogenous); HME-RhoC (transfected with wild type RhoC); settings: SUM149 and HME-RhoC cells, NO donor alone, three days
Method: as §5, §7

Question: Which “cell population with other 6-TG analogs” value [1] does the source give for `Sc1ncnc2nc[nH]c12` [6-MP, 6-mercaptopurine] here?
Answer: Its value is “decrease in the cell population”.

Question: Which “rate of GDP dissociation” value [2] does the source give for `[O]N=O` [.NO2, nitrogen dioxide] here?
Answer: The value was 0.00604 s⁻¹.

Question: And the “rate of GDP dissociation” value [3]?
Answer: The value was 5e-05 s⁻¹.

Question: And the “rate of 6-TGDP dissociation” value [4]?
Answer: The value was 0.00265 s⁻¹.

Question: What about the “rate of 6-TGDP dissociation” value [5] of the same compound?
Answer: Its value is 0.00627 s⁻¹.

Question: With `Cn1cnc([N+](=O)[O-])c1Sc1ncnc2nc[nH]c12` [AZA, azathioprine] as the compound, how does the “cell population with other 6-TG analogs” value [1] read?
Answer: The value was “decrease in the cell population”.

Question: Which “effect on invasive cell motility” value [6] does the source give for `N[C@@H](CCC(=O)N[C@@H](CSN=O)C(=O)NCC(=O)O)C(=O)O` [GSNO, S-Nitrosoglutathione] here?
Answer: Its value is “minimal”.

Question: And the “effect on invasive cell motility” value [7]?
Answer: Its value is “minimal”.

Question: And the “effect on invasive cell motility” value [8]?
Answer: Its value is “minimal”.

Question: What about the “effect on RhoC activity” value [9] of the same compound?
Answer: Its value is “minimal”.

Question: What about the “effect on RhoC activity” value [10] of the same compound?
Answer: The value was “minimal”.

Question: Which “rate of GDP dissociation” value [2] does the source give for `[N]=O` [NO, nitric oxide] here?
Answer: Its value is 0.00019 s⁻¹.

Question: What about the “rate of GDP dissociation” value [3] of the same compound?
Answer: Its value is 2e-05 s⁻¹.

Question: And the “rate of 6-TGDP dissociation” value [4]?
Answer: The value was 8e-05 s⁻¹.

Question: And the “rate of 6-TGDP dissociation” value [5]?
Answer: The value was 4e-05 s⁻¹.
